Measured values reported in patent US8877946B2, “Benzylidene-indolinone compounds and their medical use” (National University of Singapore, priority 2011, dated 2014).

Tested on: HuH7 cells
Assay: MTT antiproliferative (growth inhibition) assay on HuH7 cells
Format: cell-based, human
Conditions: Homo sapiens, Huh-7, MTT, 72 h incubation, mean and SD of 3 or more independent determinations (Tables 1-8), read-out: IC 50
Description: MTT was purchased from DUCHEFA Biochemie ([…]). Sunitinib, and sodium dodecyl sulfate, bovine serum albuminwere obtained from Sigma Aldrich (Singapore). Sorafenib was purchase from Ontario Chem. Fetal bovine serum (FBS) was obtained from Invitrogen. Human hepatocellular carcinoma cells (HuH-7 and Hep G2), and human diploid fibroblast strain (IMR 90). HuH7 was obtained as gifts from Dr Ho Han Kiat, Department of Pharmacy, NUS. IMR90 and Hep G2 were purchased from American Type Culture Collection (ATCC). HuH-7 cells were cultured in DMEM (Dulbecco's Modified Eagle Medium, high glucose) with 10% v/v fetal bovine serum (FBS), 100 mg/L penicillin G and 100 mg/L streptomycin. IMR 90 cell were cultured in EMEM (Eagle's Minimum Essential Medium), with 10% v/v FBS and 100 mg/L penicillin G and 100 mg/L streptomycin. The cells were sub-cultured when HuH7 or Hep G2 reached a density of 70-80×10^5 cell/T75 flask, and IMR 90 reached 20×10^5 cell/T75 flask. Cells were used within 2-10 passages for viability experiments.
The anti-proliferative activity of the test compounds were determined by the MTT assay. An aliquot (200 μL, 3×10^4 cells/mL for HuH7, 3.75×10^4 cells/mL for Hep G2, and 2×10^4 cells/mL for IMR 90) of medium was added to each well of the microtitre plate. […] The existing medium was removed from each well and replaced by fresh medium (200 μL) containing a known concentration of test compound. The final concentration of DMSO in each well was maintained at 0.5% v/v. (1% v/v was also utilized if the compounds were not soluble) The test compounds were incubated with the cells for another 72 h at 37 deg C., 5% CO2. The medium was then removed from the well and replaced with FBS free medium (200 μL) and MTT (50 μL of 2 mg/mL solution in phosphate buffer saline, pH 7.4). The phosphate buffer saline comprises 10 mM of potassium phosphate and 137 mM sodium chloride. After incubation (3 h) at 37 deg C., 5% CO2, the supernatant was removed and a solution of 200 μL DMSO and 25 μL Sorenson buffer (0.1 M glycine, 0.1 M sodium chloride, adjusted to pH 10.5 with 0.1 M sodium hydroxide) was added to dissolve the formazan crystals in each well. Vehicle control were cells grown in 1% v/v DMSO/Medium for 72 h, 37 deg C., 5% CO2 while blank controls were wells that contained only 200 μL DMSO and 25 μL Sorenson buffer. Absorbances were measured at 570 nm on a microplate reader (Tecan, Infinite 200). The viability of cells at a given concentration of test compound was determined from the expression:
[formula] where abs_compound=absorbance of wells containing cells and test compound, abs_vehicle (Not the same as above. Change to abs_vehicle)=absorbance of vehicle control and abs_blank=absorbance of blank control.
Each concentration of test compound was evaluated at least 3 times on separate occasions, and two different stock solution were used. The IC50 value (concentration that inhibited 50% of cell growth) was determined from the sigmoidal curve obtained by plotting percentage viability versus logarithmic concentration of test compound using GraphPad Prism 5 (San Diego, USA).

Structure (SMILES)	IC50 [µM]
O=C1Nc2ccc(Cl)cc2/C1=C\c1ccccc1F [Compound 2-2, (E)-5-Chloro-3-(2-fluoro-benzylidene)-1,3-dihydro-indol-2-one]	> 30
O=C1Nc2ccc(Cl)cc2/C1=C\c1cccc(F)c1 [Compound 2-3, (E)-5-Chloro-3-(3-fluoro-benzylidene)-1,3-dihydro-indol-2-one]	15.1 ± 2.91
O=C1Nc2ccc(Cl)cc2/C1=C\c1ccc(F)cc1 [Compound 2-4, (E)-5-Chloro-3-(4-fluoro-benzylidene)-1,3-dihydro-indol-2-one]	12.7 ± 2.82
COc1cccc(C=C2C(=O)Nc3ccc(Cl)cc32)c1 [Compound 2-5, (E)-5-Chloro-3-(3-methoxybenzylidene)-dihydro-indol-2-one]	> 30
O=C1Nc2ccc(Cl)cc2/C1=C\c1ccccc1C(F)(F)F [Compound 2-6, (E)-5-Chloro-3-(2-trifluoromethylbenzylidene)-1,3-dihydro-indol-2-one]	> 30
O=C1Nc2ccc(Cl)cc2/C1=C\c1ccc(C(F)(F)F)cc1 [Compound 2-8, (E)-5-Chloro-3-(4-trifluoromethylbenzylidene)-1,3-dihydro-indol-2-one]	7.92 ± 1.45
O=C1Nc2ccc(Cl)cc2/C1=C\c1ccc(F)c(F)c1 [Compound 2-9, (E)-5-Chloro-3-(3,4-difluoro-benzylidene)-1,3-dihydro-indol-2-one]	11.4 ± 1.45
O=C1Nc2ccc(Cl)cc2/C1=C\c1cccc(OC(F)(F)F)c1 [Compound 2-10, (E)-5-Chloro-3-(3-trifluoromethoxyl-benzylidene)-1,3-dihydro-indol-2-one]	3.83 ± 0.25
CS(=O)(=O)c1cccc(/C=C2/C(=O)Nc3ccc(Cl)cc32)c1 [Compound 2-11, (E)-5-Chloro-3-(3-methanesulfonyl-benzylidene)-1,3-dihydro-indol-2-one]	6.53 ± 0.51
NS(=O)(=O)c1cccc(C=C2C(=O)Nc3ccc(Cl)cc32)c1 [Compound 2-12, E/Z 3-(5-Chloro-2-oxo-1,2-dihydro-indol-3-ylidenemethyl)-benzenesulfonamide]	9.66 ± 1.59
N#Cc1cccc(/C=C2/C(=O)Nc3ccc(Cl)cc32)c1 [Compound 2-13, (E) 3-(5-Chloro-2-oxo-1,2-dihydro-indol-3-ylidenemethyl)-benzonitrile]	10.4 ± 1.99
CNS(=O)(=O)c1cccc(/C=C2/C(=O)Nc3ccc(Cl)cc32)c1 [Compound 2-14, (E)-3-(5-Chloro-2-oxo-1,2-dihydro-indol-3-ylidenemethyl)-N-methyl-benzenesulphonamide]	3.13 ± 0.07
O=C1Nc2cc(F)ccc2/C1=C\c1cccc(F)c1 [Compound 3-3, (E)-6-Fluoro-3-(3-fluoro-benzylidene)-1,3-dihydro-indol-2-one]	2.41 ± 1.07
O=C1Nc2cc(F)ccc2/C1=C\c1ccccc1C(F)(F)F [Compound 3-5, (E)-6-Fluoro-3-(2-trifluoromethyl-benzylidene)-1,3-dihydro-indol-2-one]	> 30
O=C1Nc2cc(F)ccc2/C1=C\c1cccc(C(F)(F)F)c1 [Compound 3-6, (E)-6-Fluoro-3-(3-trifluoromethyl-benzylidene)-1,3-dihydro-indol-2-one, reference compound]	1.41 ± 0.13
O=C1Nc2cc(F)ccc2/C1=C\c1ccc(C(F)(F)F)cc1 [Compound 3-7, (E)-6-Fluoro-3-(4-trifluoromethyl-benzylidene)-1,3-dihydro-indol-2-one]	8.42 ± 0.27
O=C1Nc2cc(F)ccc2/C1=C\c1cccc(OC(F)(F)F)c1 [Compound 3-8, (E)-6-Fluoro-3-(3-trifluoromethoxyl-benzylidene)-1,3-dihydro-indol-2-one]	7.48 ± 0.2
CS(=O)(=O)c1cccc(/C=C2/C(=O)Nc3cc(F)ccc32)c1 [Compound 3-9, (E)-6-Fluoro-3-(3-methanesulfonyl-benzylidene)-1,3-dihydro-indol-2-one]	12.7 ± 1.54
O=C1Nc2ccc(F)cc2/C1=C\c1ccccc1 [Compound 4-1, (E)-3-Benzylidene-5-fluoro-1,3-dihydro-indol-2-one]	21.4 ± 1.73

Structure (SMILES)	IC50 [µM]
O=C1Nc2ccc(F)cc2/C1=C\c1ccccc1F [Compound 4-2, (E)-5-Fluoro-3-(2-fluoro-benzylidene)-1,3-dihydro-indol-2-one]	> 30
O=C1Nc2ccc(F)cc2/C1=C\c1cccc(F)c1 [Compound 4-3, (E)-5-Fluoro-3-(3-fluoro-benzylidene)-1,3-dihydro-indol-2-one]	13.3 ± 2.31
O=C1Nc2ccc(F)cc2/C1=C\c1ccc(F)cc1 [Compound 4-4, (E)-5-Fluoro-3-(4-fluoro-benzylidene)-1,3-dihydro-indol-2-one]	13.2 ± 0.42
Cc1ccccc1/C=C1/C(=O)Nc2ccc(F)cc21 [Compound 4-5, (E)-5-Fluoro-3-(2-methyl-benzylidene)-1,3-dihydro-indol-2-one]	11.7 ± 1.1
Cc1cccc(/C=C2/C(=O)Nc3ccc(F)cc32)c1 [Compound 4-6, (E)-5-Fluoro-3-(3-methyl-benzylidene)-1,3-dihydro-indol-2-one]	> 30
Cc1ccc(/C=C2/C(=O)Nc3ccc(F)cc32)cc1 [Compound 4-7, (E)-5-Fluoro-3-(4-methyl-benzylidene)-1,3-dihydro-indol-2-one]	20.8 ± 4.02
COc1cccc(/C=C2/C(=O)Nc3ccc(F)cc32)c1 [Compound 4-8, (E)-5-Fluoro-3-(3-methoxy-benzylidene)-1,3-dihydro-indol-2-one]	16.4 ± 4.15
O=C1Nc2ccc(F)cc2/C1=C\c1ccccc1C(F)(F)F [Compound 4-9, (E)-5-Fluoro-3-(2-trifluoromethyl-benzylidene)-1,3-dihydro-indol-2-one]	> 30
O=C1Nc2ccc(F)cc2/C1=C\c1cccc(C(F)(F)F)c1 [Compound 4-10, (E)-5-Fluoro-3-(3-trifluoromethyl-benzylidene)-1,3-dihydro-indol-2-one, reference compound]	4.04 ± 0.54
O=C1Nc2ccc(F)cc2/C1=C\c1ccc(C(F)(F)F)cc1 [Compound 4-11, (E)-5-Fluoro-3-(4-trifluoromethylbenzylidene)-1,3-dihydro-indol-2-one]	9.31 ± 1.04
O=C1Nc2ccc(F)cc2/C1=C\c1ccc(F)c(F)c1 [Compound 4-12, (E)-3-(3,4-Difluoro-benzylidene)-5-fluoro-1,3-dihydro-indol-2-one]	15.3 ± 0.18
O=C1Nc2ccc(F)cc2/C1=C\c1cccc(OC(F)(F)F)c1 [Compound 4-13, (E)-5-Fluoro-3-(3-trifluoromethoxy-benzylidene)-1,3-dihydro-indol-2-one]	23.1 ± 4.75
CS(=O)(=O)c1cccc(/C=C2/C(=O)Nc3ccc(F)cc32)c1 [Compound 4-14, (E)-5-Fluoro-3-(3-methanesulfonyl-benzylidene)-1,3-dihydro-indol-2-one]	5.19 ± 0.63
N#Cc1cccc(/C=C2/C(=O)Nc3ccc(F)cc32)c1 [Compound 4-15, (E) 3-(5-Fluoro-2-oxo-1,2-dihydro-indol-3-ylidenemethyl)-benzonitrile]	7.36 ± 1.08
COc1ccc2c(c1)NC(=O)/C2=C/c1ccccc1 [Compound 5-1, (E)-3-Benzylidene-6-methoxy-1,3-dihydro-indol-2-one]	0.94 ± 0.19
COc1ccc2c(c1)NC(=O)/C2=C/c1ccccc1F [Compound 5-2, (E)-3-(2-Fluoro-benzylidene)-6-methoxy-1,3-dihydro-indol-2-one]	0.49 ± 0.05
COc1ccc2c(c1)NC(=O)/C2=C/c1cccc(F)c1 [Compound 5-3, (E)-3-(3-Fluoro-benzylidene)-6-methoxy-1,3-dihydro-indol-2-one]	0.71 ± 0.07
COc1ccc2c(c1)NC(=O)/C2=C/c1ccc(F)cc1 [Compound 5-4, (E)-3-(4-Fluorobenzylidene)-6-methoxy-1,3-dihydro-indol-2-one]	5.36 ± 0.14
COc1ccc2c(c1)NC(=O)/C2=C/c1ccccc1C(F)(F)F [Compound 5-5, (E) 6-Methoxy-3-(2-trifluoromethyl-benzylidene)-1,3-dihydro-indol-2-one]	7.04 ± 0.8
